US4537886A, “β-lactam antibacterial agents and compositions containing them” (Beecham Group p.l.c., priority 1982, dated 1985)
In brackets after ≈: the same amount, converted by molar mass. Counter-ions that a name gives are not always drawn.

system: E. coli NCTC 10418; experiment: MIC against E. coli NCTC 10418; type: cell-based; conditions: Escherichia coli, NCTC 10418 / NCTC 1048; E. coli NCTC 1048 as printed in Example 7; read-out: MIC against E. coli NCTC 1048

Row | MIC [µg/mL] | SMILES
1 | 50 | CCn1c(C)c(C(=O)N[C@@H](C(=O)N[C@@H]2C(=O)N3[C@@H]2SC(C)(C)[C@@H]3C(=O)O)c2ccccc2)c(=O)n1-c1ccc(N)cc1 [Example 7, 6β-[D2,-(2-Ethyl-3-methyl-1-(4-aminophenyl)-3-pyrazolin-5-one-4-carbonylamino)-2-phenyl]acetamido penicillanic acid (sodium salt)]

same assay, conditions: Escherichia coli, NCTC10418; E. coli NCTC 10418; unit as printed in Example 1; read-out: MIC against E. coli NCTC 10418

Row | MIC [µg/mL] | SMILES
2 | 5 | Cc1c(C(=O)N[C@@H](C(=O)N[C@@H]2C(=O)N3[C@@H]2SC(C)(C)[C@@H]3C(=O)O)c2ccccc2)c(=O)n(-c2ccccc2)n1C [Example 1, 6β-[D,2-(2,3-dimethyl-1-phenyl-3-pyrazolin-5-one-4-carbonylamino)-2-phenyl]acetamido penicillanic acid, sodium salt]

same assay, conditions: Escherichia coli, NCTC10418; read-out: MIC against E. coli NCTC 10418

Row | MIC [µg/mL] | SMILES
3 | 12.5 | Cc1c(C(=O)N[C@@H](C(=O)N[C@@H]2C(=O)N3[C@@H]2SC(C)(C)[C@@H]3C(=O)O)c2ccc(O)cc2)c(=O)n(-c2ccccc2)n1C [Example 2, 6β-[D,2-(2,3-dimethyl-1-phenyl-3-pyrazolin-5-one-4-carbonylamino)-2-(4-hydroxyphenyl)]acetamido penicillanic acid, sodium salt]
4 | 2.5 | CC1(C)S[C@@H]2[C@H](NC(=O)[C@H](NC(=O)c3cn(-c4ccccc4)[nH]c3=O)c3ccccc3)C(=O)N2[C@H]1C(=O)O [Example 3, 6β-[D,2-(2-phenyl-3-pyrazolin-5-one-4-carbonylamino)-2-phenyl]acetamido penicillanic acid, sodium salt]
5 | 2 | CC1(C)S[C@@H]2[C@H](NC(=O)[C@H](NC(=O)c3cnn(-c4ccccc4)c3O)c3ccccc3)C(=O)N2[C@H]1C(=O)O [Example 4, 6β-[D,2-(2H,3-Hydroxy-2-phenylpyrazole-4-carbonylamino)-2-phenyl]acetamido penicillanic acid (sodium salt)]
6 | 12.5 | COc1c(C(=O)N[C@@H](C(=O)N[C@@H]2C(=O)N3[C@@H]2SC(C)(C)[C@@H]3C(=O)O)c2ccccc2)cnn1-c1ccccc1 [Example 5, 6β-[D,2-(2H,3-Methoxy-2-phenyl-pyrazole-4-carbonylamino)-2-phenyl]acetamido penicillanic acid, sodium salt]
7 | 25 (≈ 40.2 µM) | CCn1c(C)c(C(=O)N[C@@H](C(=O)N[C@@H]2C(=O)N3[C@@H]2SC(C)(C)[C@@H]3C(=O)O)c2ccccc2)c(=O)n1-c1ccc([N+](=O)[O-])cc1 [Example 6, 6β-[D,2-(2-Ethyl-3-methyl-1-(4-nitrophenyl)-3-pyrazolin-5-one-4-carbonylamino)-2-phenyl]acetamido penicillanic acid]
8 | 10 | Cn1cc(C(=O)N[C@@H](C(=O)N[C@@H]2C(=O)N3[C@@H]2SC(C)(C)[C@@H]3C(=O)O)c2ccccc2)c(=O)n1-c1ccccc1 [Example 8, 6β-[D,2-(2-Methyl-1-phenyl-3-pyrazolin-5-one-4-carbonylamino)-2-phenyl]acetamido penicillanic acid (sodium salt)]
9 | 5 | Cn1cc(C(=O)N[C@@H](C(=O)N[C@@H]2C(=O)N3[C@@H]2SC(C)(C)[C@@H]3C(=O)O)c2ccccc2)c(=O)n1Cc1ccccc1 [Example 9, 6β-[D,2-(1-Benzyl-2-methyl-3-pyrazolin-5-one-4-carbonylamino)-2-phenyl]acetamido penicillanic acid (sodium salt)]
10 | 5 | Cc1c(C(=O)N[C@@H](C(=O)N[C@@H]2C(=O)N3[C@@H]2SC(C)(C)[C@@H]3C(=O)O)c2ccccc2)c(=O)n(-c2ccc(Br)cc2)n1C [Example 10, 6β-[D,2-(2,3-Dimethyl-1-(4-bromophenyl)-3-pyrazolin-5-one-4-carbonylamino)-2-phenyl]acetamido penicillanic acid (sodium salt)]
11 | 2.5 | CC1(C)S[C@@H]2[C@H](NC(=O)[C@H](NC(=O)c3cn(-c4ccc([N+](=O)[O-])cc4)[nH]c3=O)c3ccccc3)C(=O)N2[C@H]1C(=O)O [Example 11, 6β-[D,2-(2-(4-Nitrophenyl)-3-pyrazolin-5-one-4-carbonylamino)-2-phenyl] acetamido penicillanic acid (sodium salt)]
12 | 5 | CC1(C)S[C@@H]2[C@H](NC(=O)[C@H](NC(=O)c3cn(-c4ccc(N)cc4)[nH]c3=O)c3ccccc3)C(=O)N2[C@H]1C(=O)O [Example 12, 6β-[D,2-(2-(4-Aminophenyl)-3-pyrazolin-5-one-4-carbonylamino)-2-phenyl] acetamido penicillanic acid (sodium salt)]
13 | 5 | CC1(C)S[C@@H]2[C@H](NC(=O)[C@H](NC(=O)c3cn(-c4ccc([N+](=O)[O-])cc4)[nH]c3=O)c3ccc(O)cc3)C(=O)N2[C@H]1C(=O)O [Example 13, 6β-[D,2-(2-(4-Nitrophenyl)-3-pyrazolin-5-one-4-carbonylamino)-2-(4-hydroxyphenyl)] acetamido penicillanic acid (sodium salt)]
14 | 2.5 | CC1(C)S[C@@H]2[C@H](NC(=O)[C@H](NC(=O)c3cn(-c4ccc(N)cc4)[nH]c3=O)c3ccc(O)cc3)C(=O)N2[C@H]1C(=O)O [Example 14, 6β-[D,2-(2-(4-Aminophenyl)-3-pyrazolin-5-one-4-carbonylamino)-2-(4-hydroxyphenyl)] acetamido penicillanic acid (sodium salt)]
15 | 2 | CC1(C)S[C@@H]2[C@H](NC(=O)[C@H](NC(=O)c3cn(-c4ccc(O)cc4)[nH]c3=O)c3ccccc3)C(=O)N2[C@H]1C(=O)O [Example 15, 6β-[D,2-(2-(4-Hydroxyphenyl)-3-pyrazolin-5-one-4-carbonylamino)-2-phenyl] acetamido penicillanic acid (sodium salt)]
16 | 25 | Cc1c(C(=O)N[C@@H](C(=O)N[C@@H]2C(=O)N3[C@@H]2SC(C)(C)[C@@H]3C(=O)O)c2ccccc2)c(=O)[nH]n1-c1ccccc1 [Example 16, 6β-[D,2-(3-Methyl-2-phenyl-3-pyrazolin-5-one-4-carbonyl-amino)-2-phenyl]acetamido penicillanic acid, sodium salt]
17 | 1 | CC1(C)S[C@@H]2[C@H](NC(=O)[C@H](NC(=O)c3cn(-c4ccc(Br)cc4)[nH]c3=O)c3ccccc3)C(=O)N2[C@H]1C(=O)O [Example 17, 6β-[D,2-(2-p-Bromophenyl-3-pyrazolin-5-one-4-carbonylamino)-2-phenyl]acetamido penicillanic acid, sodium salt]
18 | 0.25 | COc1ccc(-n2cc(C(=O)N[C@@H](C(=O)N[C@@H]3C(=O)N4[C@@H]3SC(C)(C)[C@@H]4C(=O)O)c3ccccc3)c(=O)[nH]2)cc1 [Example 20, 6β-[D,2-(2-[4-Methoxyphenyl]-pyrazol-3-in-5-one-4-carbonylamino)-2-phenyl]acetamido penicillanic acid, sodium salt]
19 | 8 | COc1nn(-c2ccc([N+](=O)[O-])cc2)cc1C(=O)N[C@@H](C(=O)N[C@@H]1C(=O)N2[C@@H]1SC(C)(C)[C@@H]2C(=O)O)c1ccccc1 [Example 21, 6-β-[D,2-([1H]-3-Methoxy-1-[4-nitrophenyl]pyrazole-4-carbonylamino)-2-phenyl]acetamido penicillanic acid, sodium salt]
20 | 16 | COc1nn(-c2ccc(N)cc2)cc1C(=O)N[C@@H](C(=O)N[C@@H]1C(=O)N2[C@@H]1SC(C)(C)[C@@H]2C(=O)O)c1ccccc1 [Example 22, 6β-[D,2-([1H]-1-(4-Aminophenyl)-3-methoxypyrazole-4-carbonylamino)-2-phenyl]acetamido penicillanic acid, sodium salt]
21 | 10 | Cc1ccc(-n2cc(C(=O)N[C@@H](C(=O)N[C@@H]3C(=O)N4[C@@H]3SC(C)(C)[C@@H]4C(=O)O)c3ccccc3)c(=O)[nH]2)cc1 [Example 23, 6β-[D,2-(2-[4-Methylphenyl]pyrazol-3-in-5-one-4-carbonylamino)-2-phenyl] acetamido penicillanic acid, sodium salt]

Row | SMILES | MIC [µg/mL]
22 | CC(=O)OCC1=C(C(=O)O)N2C(=O)[C@@H](NC(=O)[C@H](NC(=O)c3cn(-c4ccc([N+](=O)[O-])cc4)[nH]c3=O)c3ccccc3)[C@H]2SC1 [Example 18, 7β-[D,2-(2-p-Nitrophenyl-3-pyrazolin-5-one-4-carbonyl-amino)-2-phenyl]acetamido-3-acetoxymethylceph-3-em-4-carboxylic acid, sodium salt] | 1
23 | CC(=O)OCC1=C(C(=O)O)N2C(=O)[C@@H](NC(=O)[C@H](NC(=O)c3cn(-c4ccc(N)cc4)[nH]c3=O)c3ccccc3)[C@H]2SC1 [Example 19, 7β-[D,2-(2-p-Aminophenyl-3-pyrazolin-5-one-4-carbonylamino)-2-phenyl]acetamido-3-acetoxymethylceph-3-em-4-carboxylic acid, sodium salt] | 5
